Test results as given in ChEMBL document CHEMBL4613321, “Discovery of Small-Molecule Stabilizers of 14-3-3 Protein-Protein Interactions via Dynamic Combinatorial Chemistry” (ACS Med Chem Lett, 2020).
The source made the active and inactive calls. The rule behind the calls is not given here.

Columns and labels:
[1] = target: T1, 14-3-3 protein zeta/delta (Homo sapiens) (UniProt P63104); assay: Binding affinity to 14-3-3 zeta (unknown origin) assessed as association rate constant by SPR analysis
T1 sequence (whole entry): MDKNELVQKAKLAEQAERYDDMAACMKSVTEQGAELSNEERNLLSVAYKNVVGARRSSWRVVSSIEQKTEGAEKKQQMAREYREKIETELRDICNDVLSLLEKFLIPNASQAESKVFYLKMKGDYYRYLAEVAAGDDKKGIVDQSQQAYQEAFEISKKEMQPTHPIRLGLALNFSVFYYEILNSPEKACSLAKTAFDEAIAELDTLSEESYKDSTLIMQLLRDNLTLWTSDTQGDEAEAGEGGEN

[2] = target: T2, 14-3-3 protein zeta/delta (Homo sapiens, UniProt P63104); assay: Binding affinity to 14-3-3 zeta (unknown origin) by SPR analysis
T2 sequence (P63104 whole entry): T1 sequence (whole entry)

[3] = target: T1, 14-3-3 protein zeta/delta (Homo sapiens); assay: Binding affinity to 14-3-3 zeta (unknown origin) assessed as dissociation rate constant by SPR analysis
[4] = target: T1, 14-3-3 protein zeta/delta (Homo sapiens); assay: Binding affinity to 14-3-3 zeta (unknown origin) assessed as response unit at 3.1 to 50 uM by SPR analysis
[5] = target: T1, 14-3-3 protein zeta/delta (Homo sapiens); assay: Binding affinity to 14-3-3 zeta (unknown origin) assessed as half life for dissociation by SPR analysis
[6] = target: T1, 14-3-3 protein zeta/delta (Homo sapiens); assay: Competitive binding affinity to 14-3-3 zeta (unknown origin) at 25 uM in presence of 1 uM synaptopodin by SPR analysis
[7] = target: T1, 14-3-3 protein zeta/delta (Homo sapiens); assay: Competitive binding affinity to 14-3-3 zeta (unknown origin) at 1000 uM in presence of 25 uM synaptopodin by SPR analysis
[8] = target: T1, 14-3-3 protein zeta/delta (Homo sapiens); assay: Competitive binding affinity to 14-3-3 zeta (unknown origin) at 1000 uM in presence of 1 uM synaptopodin by SPR analysis
[9] = target: T1, 14-3-3 protein zeta/delta (Homo sapiens); assay: Competitive binding affinity to 14-3-3 zeta (unknown origin) at 200 uM in presence of 1 uM synaptopodin by SPR analysis
[10] = target: T2, 14-3-3 protein zeta/delta; assay: Binding affinity to 14-3-3 zeta (unknown origin) assessed as 14-3-3 zeta-synaptopodin interaction by fluorescence polarization assay

| Ka [1] | Kd [2] | Kdiss [3] | RUmax [4] | T1/2 [5] | Activity [6] | Activity [7] | Activity [8] | Activity [9] | EC50 [10] | Compound |
| --- | --- | --- | --- | --- | --- | --- | --- | --- | --- | --- |
| 2.6 ×10³ /M/s | 16 µM | 4.1 ×10⁻² /s | 4.6 | 17 s | Active |  |  |  |  | O=C(N/N=C/c1cccc(Br)c1)c1cc2c(s1)CCCC2 |
| 5.8 ×10² /M/s | 15 µM | 8.7 ×10⁻³ /s | 4.5 | 80 s | Active |  |  |  |  | O=C(N/N=C/c1cccc(Cl)c1Cl)c1cc2c(s1)CCCC2 |
|  | 1010 µM |  |  |  |  | Active | Active | Active | 120 µM | O=C(N/N=C/c1cccc(Cl)c1Cl)c1ccccc1P(=O)(O)O |
